Measured values reported in paper PMC5218480 (PLoS ONE, 2017).

System: MV-4-11 cells
Assay: Gene expression microarray analysis (Affymetrix PrimeView) and GSEA
Format: cell-based, human
Set-up: RFU PODN (11730768_x_at) / Fold change /veh PODN (11730768_x_at) / RFU LINC00158 (11744669_a_at) / Fold change /veh LINC00158 (11744669_a_at) / RFU DUSP10 (11751237_a_at) / Fold change /veh DUSP10 (11751237_a_at) / RFU ID3 (11757404_x_at) / Fold change /veh ID3 (11757404_x_at) / RFU PLEKHG5 (11737974_s_at) / Fold change /veh PLEKHG5 (11737974_s_at) / RFU LRRC4B (11730491_at) / Fold change /veh LRRC4B (11730491_at) / RFU GIMAP4 (11747438_a_at) / Fold change /veh GIMAP4 (11747438_a_at) / RFU KRT8 (11758183_x_at) / Fold change /veh KRT8 (11758183_x_at) / RFU CNN1 (11734310_a_at) / Fold change /veh CNN1 (11734310_a_at) / RFU VPS37D (11726825_at) / Fold change /veh VPS37D (11726825_at) / RFU C10orf10 (11716522_x_at) / Fold change /veh C10orf10 (11716522_x_at) / RFU KIR2DL2 /// KIR2DL4 /// KIR2DL5A /// KIR2DL5B /// KIR2DS1 /// KIR2DS2 /// KIR2DS3 /// KIR2DS4 /// KIR3DL3 /// KIR3DL3 /// KIR3DS1 (11738374_at) / Fold change /veh KIR2DL2 /// KIR2DL4 /// KIR2DL5A /// KIR2DL5B /// KIR2DS1 /// KIR2DS2 /// KIR2DS3 /// KIR2DS4 /// KIR3DL3 /// KIR3DL3 /// KIR3DS1 (11738374_at) / RFU C1QL1 (11718748_at) / Fold change /veh C1QL1 (11718748_at) / RFU TMPRSS4 (11747572_a_at) / Fold change /veh TMPRSS4 (11747572_a_at) / RFU HAMP (11756126_x_at) / Fold change /veh HAMP (11756126_x_at) / RFU RNFT2 (11725882_a_at) / Fold change /veh RNFT2 (11725882_a_at) / RFU NR4A2 (11747474_a_at) / Fold change /veh NR4A2 (11747474_a_at) / RFU ABCC12 (11746883_a_at) / Fold change /veh ABCC12 (11746883_a_at) / RFU TMEM136 (11760407_x_at) / Fold change /veh TMEM136 (11760407_x_at) / RFU CLDN22 /// WWC2 (11732394_at) / Fold change /veh CLDN22 /// WWC2 (11732394_at) / RFU HLA-DPB1 (11760878_x_at) / Fold change /veh HLA-DPB1 (11760878_x_at) / RFU SPINT1 (11716480_a_at) / Fold change /veh SPINT1 (11716480_a_at) / RFU GAP43 (11754022_s_at) / Fold change /veh GAP43 (11754022_s_at) / RFU A4GNT (11735810_at) / Fold change /veh A4GNT (11735810_at) / RFU PRB3 (11715151_x_at) / Fold change /veh PRB3 (11715151_x_at) / RFU TUBB4B (11761932_at) / Fold change /veh TUBB4B (11761932_at) / RFU CAPN14 (11732068_a_at) / Fold change /veh CAPN14 (11732068_a_at) / RFU TMCC2 (11721928_a_at) / Fold change /veh TMCC2 (11721928_a_at) / RFU IRGQ (11745062_a_at) / Fold change /veh IRGQ (11745062_a_at) / RFU FAM174B (11720279_a_at) / Fold change /veh FAM174B (11720279_a_at) / RFU TMPRSS4 (11748680_a_at) / Fold change /veh TMPRSS4 (11748680_a_at) / RFU FAM212B (11763350_a_at) / Fold change /veh FAM212B (11763350_a_at) / RFU PLEKHG5 (11743358_a_at) / Fold change /veh PLEKHG5 (11743358_a_at) / RFU ZSCAN30 (11745921_a_at) / Fold change /veh ZSCAN30 (11745921_a_at) / RFU CMKLR1 (11741424_a_at) / Fold change /veh CMKLR1 (11741424_a_at) / RFU LOC101060620 /// MAPK8IP1 (11723275_at) / Fold change /veh LOC101060620 /// MAPK8IP1 (11723275_at) / RFU SPTSSB (11747773_x_at) / Fold change /veh SPTSSB (11747773_x_at) / RFU PRSS12 (11739890_at) / Fold change /veh PRSS12 (11739890_at) / RFU BIN1 (11741810_x_at) / Fold change /veh BIN1 (11741810_x_at) / RFU WNT11 (11732464_a_at) / Fold change /veh WNT11 (11732464_a_at) / RFU C10orf10 (11716521_a_at) / Fold change /veh C10orf10 (11716521_a_at) / RFU C5orf56 (11738089_at) / Fold change /veh C5orf56 (11738089_at) / RFU CYB561 (11721691_x_at) / Fold change /veh CYB561 (11721691_x_at) / RFU ANKRD19P (11752326_a_at) / Fold change /veh ANKRD19P (11752326_a_at) / RFU OR2T12 /// OR2T33 /// OR2T8 (11738714_s_at) / Fold change /veh OR2T12 /// OR2T33 /// OR2T8 (11738714_s_at) / RFU VCAN (11748164_a_at) / Fold change /veh VCAN (11748164_a_at) / RFU JSRP1 (11732532_at) / Fold change /veh JSRP1 (11732532_at) / RFU KRTAP10-11 (11738290_x_at) / Fold change /veh KRTAP10-11 (11738290_x_at) / RFU MYO3A (11730013_a_at) / Fold change /veh MYO3A (11730013_a_at) / RFU EBF3 (11725865_a_at) / Fold change /veh EBF3 (11725865_a_at) / RFU CAMK2N1 (11719241_x_at) / Fold change /veh CAMK2N1 (11719241_x_at) / RFU C5orf56 (11738088_a_at) / Fold change /veh C5orf56 (11738088_a_at) / RFU OLFML3 (11715873_a_at) / Fold change /veh OLFML3 (11715873_a_at) / RFU LOC100653217 /// NTM (11731650_a_at) / Fold change /veh LOC100653217 /// NTM (11731650_a_at) / RFU MAPK11 (11762145_a_at) / Fold change /veh MAPK11 (11762145_a_at) / RFU FIZ1 (11724087_x_at) / Fold change /veh FIZ1 (11724087_x_at) / RFU OASL (11726364_x_at) / Fold change /veh OASL (11726364_x_at) / RFU SOX15 (11748057_x_at) / Fold change /veh SOX15 (11748057_x_at) / RFU CD79A (11719716_a_at) / Fold change /veh CD79A (11719716_a_at) / RFU HIST1H1D (11736915_at) / Fold change /veh HIST1H1D (11736915_at) / RFU CASKIN2 (11723855_a_at) / Fold change /veh CASKIN2 (11723855_a_at) / RFU LOC730098 (11760151_x_at) / Fold change /veh LOC730098 (11760151_x_at) / RFU OR4N2 (11742367_at) / Fold change /veh OR4N2 (11742367_at) / RFU PRRT2 (11749266_a_at) / Fold change /veh PRRT2 (11749266_a_at) / RFU SNX32 (11753110_a_at) / Fold change /veh SNX32 (11753110_a_at) / RFU CDHR5 (11726645_a_at) / Fold change /veh CDHR5 (11726645_a_at) / RFU RCAN1 (11760418_a_at) / Fold change /veh RCAN1 (11760418_a_at) / RFU FAM167A (11723789_a_at) / Fold change /veh FAM167A (11723789_a_at) / RFU FAM26E (11764081_at) / Fold change /veh FAM26E (11764081_at) / RFU ISYNA1 (11749810_s_at) / Fold change /veh ISYNA1 (11749810_s_at) / RFU ACY1 (11761880_at) / Fold change /veh ACY1 (11761880_at) / RFU 11764098_at / Fold change /veh 11764098_at / RFU SAMD14 (11745864_x_at) / Fold change /veh SAMD14 (11745864_x_at) / RFU NPB (11741838_a_at) / Fold change /veh NPB (11741838_a_at) / RFU TMPRSS6 (11731388_a_at) / Fold change /veh TMPRSS6 (11731388_a_at) / RFU KRTAP10-2 (11738614_at) / Fold change /veh KRTAP10-2 (11738614_at) / RFU ARHGAP8 /// PRR5-ARHGAP8 (11727945_x_at) / Fold change /veh ARHGAP8 /// PRR5-ARHGAP8 (11727945_x_at) / RFU KRTAP5-7 /// NADSYN1 (11734609_at) / Fold change /veh KRTAP5-7 /// NADSYN1 (11734609_at) / RFU RASL12 (11751679_a_at) / Fold change /veh RASL12 (11751679_a_at) / RFU CDKN2B (11736163_a_at) / Fold change /veh CDKN2B (11736163_a_at) / RFU PRF1 (11729649_at) / Fold change /veh PRF1 (11729649_at) / RFU, ZNF638 /// ZNF638-IT1 / Fold change vs veh, ZNF638 /// ZNF638-IT1 / RFU, PANK3 / Fold change vs veh, PANK3 / RFU, SH3YL1 / Fold change vs veh, SH3YL1 / RFU, ZEB2 / Fold change vs veh, ZEB2 / RFU, NRIP1 / Fold change vs veh, NRIP1 / RFU, PTTG1IP / Fold change vs veh, PTTG1IP / RFU, CAPN2 / Fold change vs veh, CAPN2 / RFU, MED14 / Fold change vs veh, MED14 / RFU, SNORA58 / Fold change vs veh, SNORA58 / RFU, C1orf63 / Fold change vs veh, C1orf63 / RFU, LRRFIP1 / Fold change vs veh, LRRFIP1 / RFU, NDUFAF7 / Fold change vs veh, NDUFAF7 / RFU, SLC12A2 / Fold change vs veh, SLC12A2 / RFU, IBTK / Fold change vs veh, IBTK / RFU, ESF1 / Fold change vs veh, ESF1 / Fold change vs veh, TMEM50B / RFU, TAOK1 / Fold change vs veh, TAOK1 / RFU, ACBD3 / Fold change vs veh, ACBD3 / RFU, TMA16 / Fold change vs veh, TMA16 / RFU, RWDD3 / Fold change vs veh, RWDD3 / RFU, BCAT1 / Fold change vs veh, BCAT1 / RFU, EDEM3 / Fold change vs veh, EDEM3 / RFU, TMEM33 / Fold change vs veh, TMEM33 / RFU, WDR75 / Fold change vs veh, WDR75 / RFU, AHCTF1 / Fold change vs veh, AHCTF1 / RFU, TFRC / Fold change vs veh, TFRC / RFU, ZDHHC17 / Fold change vs veh, ZDHHC17 / RFU, NOM1 / Fold change vs veh, NOM1 / RFU, ARL8B / Fold change vs veh, ARL8B / RFU, ZBTB11 / Fold change vs veh, ZBTB11 / RFU, TAMM41 / Fold change vs veh, TAMM41 / RFU, KIAA1704 /// LOC100996395 / Fold change vs veh, KIAA1704 /// LOC100996395 / RFU, ING1 / Fold change vs veh, ING1 / RFU, TRMT61B / Fold change vs veh, TRMT61B / RFU, FUBP3 / Fold change vs veh, FUBP3 / RFU, TP53 / Fold change vs veh, TP53 / RFU, TNKS2 / Fold change vs veh, TNKS2 / RFU, ZFP14 / Fold change vs veh, ZFP14 / RFU, ACTR2 / Fold change vs veh, ACTR2 / RFU, PPP3R1 / Fold change vs veh, PPP3R1 / RFU, PIK3R1 / Fold change vs veh, PIK3R1 / RFU, HNRNPA1 / Fold change vs veh, HNRNPA1 / RFU, RNF170 / Fold change vs veh, RNF170 / RFU, ZNF28 / Fold change vs veh, ZNF28 / RFU, RNGTT / Fold change vs veh, RNGTT / RFU, OGT / Fold change vs veh, OGT / RFU, BRD1 / Fold change vs veh, BRD1 / RFU, MARS / Fold change vs veh, MARS / RFU, ZNF655 / Fold change vs veh, ZNF655 / RFU, FAHD1 / Fold change vs veh, FAHD1 / RFU, BDP1 / Fold change vs veh, BDP1 / RFU, LRRCC1 / Fold change vs veh, LRRCC1 / RFU, ARID1A / Fold change vs veh, ARID1A / RFU, ZNF146 / Fold change vs veh, ZNF146 / RFU, ZNF330 / Fold change vs veh, ZNF330 / RFU, GPN3 / Fold change vs veh, GPN3 / RFU, C9orf123 / Fold change vs veh, C9orf123 / RFU, N4BP2L2 / Fold change vs veh, N4BP2L2 / RFU, ARFIP1 / Fold change vs veh, ARFIP1 / RFU, FAM179B / Fold change vs veh, FAM179B / RFU, BCL10 / Fold change vs veh, BCL10 / RFU, UHRF1BP1L / Fold change vs veh, UHRF1BP1L / RFU, BET1 / Fold change vs veh, BET1 / RFU, CNOT2 / Fold change vs veh, CNOT2 / RFU, ZNF268 / Fold change vs veh, ZNF268 / Fold change vs veh, ZNF507 / RFU, DGCR2 / Fold change vs veh, DGCR2 / RFU, WDSUB1 / Fold change vs veh, WDSUB1 / Fold change vs veh, HSP90B1 /// MIR3652 / RFU, ADSS / Fold change vs veh, ADSS / RFU, GK / Fold change vs veh, GK / RFU, ZNF148 / Fold change vs veh, ZNF148 / RFU, TAF9 / Fold change vs veh, TAF9 / RFU, SLC1A5 / Fold change vs veh, SLC1A5 / RFU, SLMO2 / Fold change vs veh, SLMO2 / RFU, ABCC4 / Fold change vs veh, ABCC4 / RFU, LOC101060439 /// RAP1B / Fold change vs veh, LOC101060439 /// RAP1B / RFU, RFX7 / Fold change vs veh, RFX7 / RFU, GTPBP10 / Fold change vs veh, GTPBP10 / RFU, CNEP1R1 / Fold change vs veh, CNEP1R1 / RFU, BIVM-ERCC5 /// ERCC5 / Fold change vs veh, BIVM-ERCC5 /// ERCC5 / RFU, ILF3 / Fold change vs veh, ILF3 / RFU 11762660_at / Fold change /veh 11762660_at / RFU VCAN (11757783_s_at) / Fold change /veh VCAN (11757783_s_at) / RFU DDX43 (11728927_at) / Fold change /veh DDX43 (11728927_at) / RFU KRT8 (11758188_x_at) / Fold change /veh KRT8 (11758188_x_at) / RFU NKD1 (11759106_at) / Fold change /veh NKD1 (11759106_at) / RFU SRD5A1 (11742802_a_at) / Fold change /veh SRD5A1 (11742802_a_at) / RFU TPSAB1 /// TPSB2 (11721975_s_at) / Fold change /veh TPSAB1 /// TPSB2 (11721975_s_at) / RFU GSTM3 (11746129_a_at) / Fold change /veh GSTM3 (11746129_a_at) / RFU IL23R (11737362_x_at) / Fold change /veh IL23R (11737362_x_at) / RFU TMEM51 (11727254_a_at) / Fold change /veh TMEM51 (11727254_a_at) / RFU PIWIL2 (11732686_x_at) / Fold change /veh PIWIL2 (11732686_x_at) / RFU ORM1 (11744905_x_at) / Fold change /veh ORM1 (11744905_x_at) / RFU CCDC152 (11743942_at) / Fold change /veh CCDC152 (11743942_at) / RFU ECM1 (11717891_a_at) / Fold change /veh ECM1 (11717891_a_at) / RFU IL23R (11748794_a_at) / Fold change /veh IL23R (11748794_a_at) / RFU TNFAIP8L3 (11732012_x_at) / Fold change /veh TNFAIP8L3 (11732012_x_at) / RFU MBOAT4 (11741988_at) / Fold change /veh MBOAT4 (11741988_at) / RFU 11764193_at / Fold change /veh 11764193_at / RFU TMEM53 (11763286_at) / Fold change /veh TMEM53 (11763286_at) / RFU MAGEB2 (11727129_at) / Fold change /veh MAGEB2 (11727129_at) / RFU TMEM200A (11744735_a_at) / Fold change /veh TMEM200A (11744735_a_at) / RFU CCDC152 (11751479_a_at) / Fold change /veh CCDC152 (11751479_a_at) / RFU FAM211A (11726209_a_at) / Fold change /veh FAM211A (11726209_a_at) / RFU RGS16 (11746705_a_at) / Fold change /veh RGS16 (11746705_a_at) / RFU VCAN (11755009_s_at) / Fold change /veh VCAN (11755009_s_at) / RFU RHOB (11743442_s_at) / Fold change /veh RHOB (11743442_s_at) / RFU RGS16 (11720943_a_at) / Fold change /veh RGS16 (11720943_a_at) / RFU RGS16 (11720944_at) / Fold change /veh RGS16 (11720944_at) / RFU, VPS4B / Fold change vs veh, VPS4B / RFU, CREB1 / Fold change vs veh, CREB1 / RFU, DNAJC13 / Fold change vs veh, DNAJC13 / RFU, GNAQ / Fold change vs veh, GNAQ / RFU, CDK5R1 / Fold change vs veh, CDK5R1 / RFU, ZRANB3 / Fold change vs veh, ZRANB3 / RFU, CUL4A / Fold change vs veh, CUL4A / RFU, CCNY / Fold change vs veh, CCNY / RFU, UFL1 / Fold change vs veh, UFL1 / RFU, COG3 / Fold change vs veh, COG3 / RFU, DIAPH2 / Fold change vs veh, DIAPH2 / RFU, SKA2 / Fold change vs veh, SKA2 / RFU, AFF3 / Fold change vs veh, AFF3 / RFU, LMF1 / Fold change vs veh, LMF1 / RFU, IPO11 / Fold change vs veh, IPO11 / RFU, DFFB / Fold change vs veh, DFFB / RFU, FOXP1 / Fold change vs veh, FOXP1 / RFU, CARD8 / Fold change vs veh, CARD8 / RFU, STRN3 / Fold change vs veh, STRN3 / RFU, ADK / Fold change vs veh, ADK / RFU, RASSF2 / Fold change vs veh, RASSF2 / RFU, WIPF1 / Fold change vs veh, WIPF1 / RFU, LARP1B / Fold change vs veh, LARP1B / RFU, RASA1 / Fold change vs veh, RASA1 / RFU, RB1 / Fold change vs veh, RB1 / RFU, PPFIA1 / Fold change vs veh, PPFIA1 / RFU, MAT2A / Fold change vs veh, MAT2A / RFU, CCT5 / Fold change vs veh, CCT5 / RFU, WDR92 / Fold change vs veh, WDR92 / RFU, CUX1 / Fold change vs veh, CUX1 / RFU, TTC7A / Fold change vs veh, TTC7A / RFU, TMEM135 / Fold change vs veh, TMEM135 / RFU, DEPTOR / Fold change vs veh, DEPTOR / RFU, CPM / Fold change vs veh, CPM / RFU, DNAJB6 / Fold change vs veh, DNAJB6 / RFU, CACNA2D3 / Fold change vs veh, CACNA2D3 / RFU, DTX4 / Fold change vs veh, DTX4 / RFU, TFCP2 / Fold change vs veh, TFCP2 / RFU, GMCL1 /// GMCL1P1 / Fold change vs veh, GMCL1 /// GMCL1P1 / RFU, AEBP2 / Fold change vs veh, AEBP2 / RFU, SNHG1 /// SNORD22 /// SNORD25 /// SNORD26 /// SNORD27 /// SNORD28 /// SNORD29 /// SNORD31 / Fold change vs veh, SNHG1 /// SNORD22 /// SNORD25 /// SNORD26 /// SNORD27 /// SNORD28 /// SNORD29 /// SNORD31 / Fold change (Aza/veh), C12orf56 (ProbeSet 11735607_a_at) / Fold change (ACY-1035/veh), C12orf56 (ProbeSet 11735607_a_at) / Fold change (Aza/veh), FGFR1OP (ProbeSet 11751329_s_at) / Fold change (ACY-1035/veh), FGFR1OP (ProbeSet 11751329_s_at) / Fold change (Aza/veh), VPS36 (ProbeSet 11739960_a_at) / Fold change (ACY-1035/veh), VPS36 (ProbeSet 11739960_a_at) / RFU SYPL1 (11715823_x_at) / Fold change /veh SYPL1 (11715823_x_at) / RFU IGFBP7 (11715501_s_at) / Fold change /veh IGFBP7 (11715501_s_at) / RFU REEP3 (11722064_at) / Fold change /veh REEP3 (11722064_at) / RFU IGLL1 (11728026_x_at) / Fold change /veh IGLL1 (11728026_x_at): dose or concentration left out as unconfirmed
Conditions: ProbeSet 11725901_x_at; LIST B

SMILES: Nc1ncn([C@@H]2O[C@H](CO)[C@@H](O)[C@H]2O)c(=O)n1 [azacitidine]
- Fold change vs veh, RWDD3: 0.96
